# Results taken from PubChem BioAssay (NCI).
#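 All cell lines were grown in 96-well plates and treated with compound for 48 hours. TGI marks complete inhibition of growth.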
# Legend:
# Test in all cases: NCI tumour cell line growth inhibition, 48 h
# NCI-H460 lung = tested on: NCI-H460 lung
# MALME-3M melanoma = tested on: MALME-3M melanoma
# CAKI-1 renal = tested on: CAKI-1 renal
# DLD-1 colon = tested on: DLD-1 colon
# DMS 114 small cell lung = tested on: DMS 114 small cell lung
# EKVX NSCLC = tested on: EKVX NSCLC
# M14 melanoma = tested on: M14 melanoma
# U251 CNS = tested on: U251 CNS
# LOX IMVI melanoma = tested on: LOX IMVI melanoma
# COLO 205 colon = tested on: COLO 205 colon
# RPMI-8226 leukemia = tested on: RPMI-8226 leukemia
# NCI-H226 lung = tested on: NCI-H226 lung
# OVCAR-4 ovarian = tested on: OVCAR-4 ovarian
# RXF 393 renal = tested on: RXF 393 renal
# SK-MEL-5 melanoma = tested on: SK-MEL-5 melanoma
# HOP-92 NSCLC = tested on: HOP-92 NSCLC
# HCT-15 colon = tested on: HCT-15 colon
# SK-OV-3 ovarian = tested on: SK-OV-3 ovarian
# NCI-H23 lung = tested on: NCI-H23 lung
# HOP-18 NSCLC = tested on: HOP-18 NSCLC
# SF-268 CNS = tested on: SF-268 CNS
# SN12C renal = tested on: SN12C renal
# CCRF-CEM leukemia = tested on: CCRF-CEM leukemia
# UO-31 renal = tested on: UO-31 renal
# M19-MEL melanoma = tested on: M19-MEL melanoma
# TK-10 renal = tested on: TK-10 renal
# A498 renal = tested on: A498 renal
# K-562 leukemia = tested on: K-562 leukemia
# SK-MEL-28 melanoma = tested on: SK-MEL-28 melanoma
# UACC-62 melanoma = tested on: UACC-62 melanoma
# SNB-19 CNS = tested on: SNB-19 CNS
# KM20L2 colon = tested on: KM20L2 colon
# HCC-2998 colon = tested on: HCC-2998 colon
# LXFL 529 NSCLC = tested on: LXFL 529 NSCLC
# RXF-631 renal = tested on: RXF-631 renal
# 786-0 renal = tested on: 786-0 renal
# ACHN renal = tested on: ACHN renal
# MOLT-4 leukemia = tested on: MOLT-4 leukemia
# NCI-H522 lung = tested on: NCI-H522 lung
# UACC-257 melanoma = tested on: UACC-257 melanoma
# KM12 colon = tested on: KM12 colon
# HL-60(TB) leukemia = tested on: HL-60(TB) leukemia
# HT29 colon = tested on: HT29 colon
# OVCAR-3 ovarian = tested on: OVCAR-3 ovarian
# XF 498 CNS = tested on: XF 498 CNS
# OVCAR-5 ovarian = tested on: OVCAR-5 ovarian
# SW-620 colon = tested on: SW-620 colon
# OVCAR-8 ovarian = tested on: OVCAR-8 ovarian
# SNB-78 CNS = tested on: SNB-78 CNS
# IGROV1 ovarian = tested on: IGROV1 ovarian
# SNB-75 CNS = tested on: SNB-75 CNS
# A549 NSCLC = tested on: A549 NSCLC
# SK-MEL-2 melanoma = tested on: SK-MEL-2 melanoma
# HOP-62 NSCLC = tested on: HOP-62 NSCLC
# HCT-116 colon = tested on: HCT-116 colon
# SF-295 CNS = tested on: SF-295 CNS
# DMS 273 small cell lung = tested on: DMS 273 small cell lung
# SF-539 CNS = tested on: SF-539 CNS
# SR leukemia = tested on: SR leukemia
compound,measurement,setting,value
COc1cc(Nc2cnc3ccc(N)cc3n2)cc(OC)c1OC,TGI,NCI-H460 lung,> 100 µM
same,TGI,MALME-3M melanoma,> 100 µM
same,TGI,CAKI-1 renal,> 100 µM
same,TGI,DLD-1 colon,> 33.6 µM
same,TGI,DMS 114 small cell lung,> 100 µM
same,TGI,EKVX NSCLC,> 100 µM
same,TGI,M14 melanoma,> 100 µM
same,TGI,U251 CNS,> 100 µM
same,TGI,LOX IMVI melanoma,> 82.8 µM
same,TGI,COLO 205 colon,> 100 µM
same,TGI,RPMI-8226 leukemia,42.2 µM
same,TGI,NCI-H226 lung,> 100 µM
same,TGI,OVCAR-4 ovarian,> 100 µM
same,TGI,RXF 393 renal,98.5 µM
same,TGI,SK-MEL-5 melanoma,> 100 µM
same,TGI,HOP-92 NSCLC,> 100 µM
same,TGI,HCT-15 colon,> 100 µM
same,TGI,SK-OV-3 ovarian,> 100 µM
same,TGI,NCI-H23 lung,> 100 µM
same,TGI,HOP-18 NSCLC,> 100 µM
same,TGI,SF-268 CNS,> 100 µM
same,TGI,SN12C renal,> 100 µM
same,TGI,CCRF-CEM leukemia,> 56.6 µM
same,TGI,UO-31 renal,> 100 µM
same,TGI,M19-MEL melanoma,> 100 µM
same,TGI,TK-10 renal,> 100 µM
same,TGI,A498 renal,> 100 µM
same,TGI,K-562 leukemia,> 56.6 µM
same,TGI,SK-MEL-28 melanoma,> 100 µM
same,TGI,UACC-62 melanoma,> 100 µM
same,TGI,SNB-19 CNS,> 100 µM
same,TGI,KM20L2 colon,> 100 µM
same,TGI,HCC-2998 colon,> 100 µM
same,TGI,LXFL 529 NSCLC,> 100 µM
same,TGI,RXF-631 renal,> 100 µM
same,TGI,786-0 renal,> 100 µM
same,TGI,ACHN renal,> 100 µM
same,TGI,MOLT-4 leukemia,> 100 µM
same,TGI,NCI-H522 lung,> 100 µM
same,TGI,UACC-257 melanoma,> 100 µM
same,TGI,KM12 colon,> 100 µM
same,TGI,HL-60(TB) leukemia,> 52.1 µM
same,TGI,HT29 colon,> 100 µM
same,TGI,OVCAR-3 ovarian,> 86.6 µM
same,TGI,XF 498 CNS,> 100 µM
same,TGI,OVCAR-5 ovarian,> 100 µM
same,TGI,SW-620 colon,> 100 µM
same,TGI,OVCAR-8 ovarian,> 100 µM
same,TGI,SNB-78 CNS,> 100 µM
same,TGI,IGROV1 ovarian,> 100 µM
same,TGI,SNB-75 CNS,> 100 µM
same,TGI,A549 NSCLC,> 100 µM
same,TGI,SK-MEL-2 melanoma,> 100 µM
same,TGI,HOP-62 NSCLC,71.1 µM
same,TGI,HCT-116 colon,> 100 µM
same,TGI,SF-295 CNS,> 100 µM
same,TGI,DMS 273 small cell lung,> 100 µM
Cc1nc2c(nc1C)C(=O)C1=C(C2=O)C2C=CC1CC2,TGI,NCI-H460 lung,39.8 µM
same,TGI,MALME-3M melanoma,24.4 µM
same,TGI,CAKI-1 renal,37.6 µM
same,TGI,DLD-1 colon,21.6 µM
same,TGI,DMS 114 small cell lung,3.71 µM
same,TGI,EKVX NSCLC,18.9 µM
same,TGI,M14 melanoma,27.3 µM
same,TGI,U251 CNS,10.1 µM
same,TGI,LOX IMVI melanoma,6.14 µM
same,TGI,COLO 205 colon,29.8 µM
same,TGI,RPMI-8226 leukemia,7.35 µM
same,TGI,NCI-H226 lung,30.8 µM
same,TGI,OVCAR-4 ovarian,3.5 µM
same,TGI,RXF 393 renal,18.5 µM
same,TGI,SK-MEL-5 melanoma,4.82 µM
same,TGI,HOP-92 NSCLC,4.48 µM
same,TGI,HCT-15 colon,38.1 µM
same,TGI,SK-OV-3 ovarian,> 96.3 µM
same,TGI,SF-539 CNS,26.9 µM
same,TGI,NCI-H23 lung,19.6 µM
same,TGI,HOP-18 NSCLC,30.2 µM
same,TGI,SF-268 CNS,12.3 µM
same,TGI,SN12C renal,32.4 µM
same,TGI,CCRF-CEM leukemia,5.9 µM
same,TGI,UO-31 renal,26.1 µM
same,TGI,M19-MEL melanoma,3.46 µM
same,TGI,TK-10 renal,> 55.9 µM
same,TGI,A498 renal,98.7 µM
same,TGI,K-562 leukemia,6.15 µM
same,TGI,SK-MEL-28 melanoma,35.6 µM
same,TGI,UACC-62 melanoma,12.3 µM
same,TGI,SNB-19 CNS,> 61.2 µM
same,TGI,KM20L2 colon,52.8 µM
same,TGI,HCC-2998 colon,> 62.1 µM
same,TGI,LXFL 529 NSCLC,3.19 µM
same,TGI,RXF-631 renal,13.9 µM
same,TGI,786-0 renal,24.8 µM
same,TGI,ACHN renal,24.9 µM
same,TGI,MOLT-4 leukemia,5.38 µM
same,TGI,NCI-H522 lung,5.91 µM
same,TGI,UACC-257 melanoma,14.5 µM
same,TGI,KM12 colon,33.3 µM
same,TGI,HL-60(TB) leukemia,4.26 µM
same,TGI,HT29 colon,41.7 µM
same,TGI,OVCAR-3 ovarian,17.3 µM
same,TGI,XF 498 CNS,14.5 µM
same,TGI,OVCAR-5 ovarian,36.9 µM
same,TGI,SW-620 colon,8.09 µM
same,TGI,OVCAR-8 ovarian,10.8 µM
same,TGI,SNB-78 CNS,10.6 µM
same,TGI,IGROV1 ovarian,9.93 µM
same,TGI,SNB-75 CNS,61.6 µM
same,TGI,A549 NSCLC,41.5 µM
same,TGI,SK-MEL-2 melanoma,29 µM
same,TGI,HOP-62 NSCLC,53.9 µM
same,TGI,HCT-116 colon,3.12 µM
same,TGI,SF-295 CNS,25 µM
same,TGI,DMS 273 small cell lung,29.8 µM
Cc1cccc(-c2cc(=O)c3cc(C)c(C)c(C(=O)O)c3o2)c1,TGI,NCI-H460 lung,> 100 µM
same,TGI,MALME-3M melanoma,> 100 µM
same,TGI,CAKI-1 renal,> 100 µM
same,TGI,DLD-1 colon,> 100 µM
same,TGI,DMS 114 small cell lung,> 100 µM
same,TGI,EKVX NSCLC,> 100 µM
same,TGI,M14 melanoma,> 100 µM
same,TGI,U251 CNS,> 100 µM
same,TGI,LOX IMVI melanoma,> 100 µM
same,TGI,COLO 205 colon,> 100 µM
same,TGI,RPMI-8226 leukemia,> 100 µM
same,TGI,NCI-H226 lung,> 100 µM
same,TGI,OVCAR-4 ovarian,> 100 µM
same,TGI,SK-MEL-5 melanoma,> 100 µM
same,TGI,HOP-92 NSCLC,> 100 µM
same,TGI,HCT-15 colon,> 100 µM
same,TGI,SK-OV-3 ovarian,> 100 µM
same,TGI,SF-539 CNS,> 100 µM
same,TGI,NCI-H23 lung,> 100 µM
same,TGI,HOP-18 NSCLC,> 100 µM
same,TGI,SN12C renal,> 100 µM
same,TGI,CCRF-CEM leukemia,> 100 µM
same,TGI,UO-31 renal,> 100 µM
same,TGI,M19-MEL melanoma,> 100 µM
same,TGI,TK-10 renal,> 100 µM
same,TGI,SR leukemia,> 100 µM
same,TGI,K-562 leukemia,> 100 µM
same,TGI,SK-MEL-28 melanoma,> 100 µM
same,TGI,UACC-62 melanoma,> 100 µM
same,TGI,SNB-19 CNS,> 100 µM
same,TGI,KM20L2 colon,> 100 µM
same,TGI,HCC-2998 colon,> 100 µM
same,TGI,LXFL 529 NSCLC,> 100 µM
same,TGI,RXF-631 renal,> 100 µM
same,TGI,786-0 renal,> 100 µM
same,TGI,ACHN renal,> 100 µM
same,TGI,MOLT-4 leukemia,> 100 µM
same,TGI,NCI-H522 lung,> 100 µM
same,TGI,UACC-257 melanoma,> 100 µM
same,TGI,KM12 colon,> 100 µM
same,TGI,HL-60(TB) leukemia,> 100 µM
same,TGI,HT29 colon,> 100 µM
same,TGI,OVCAR-3 ovarian,> 100 µM
same,TGI,XF 498 CNS,> 100 µM
same,TGI,OVCAR-5 ovarian,> 100 µM
same,TGI,SW-620 colon,> 100 µM
same,TGI,OVCAR-8 ovarian,> 100 µM
same,TGI,SNB-78 CNS,> 100 µM
same,TGI,IGROV1 ovarian,> 100 µM
same,TGI,SNB-75 CNS,> 100 µM
same,TGI,A549 NSCLC,> 100 µM
same,TGI,SK-MEL-2 melanoma,> 100 µM
same,TGI,HOP-62 NSCLC,> 100 µM
same,TGI,HCT-116 colon,> 100 µM
same,TGI,SF-295 CNS,> 100 µM
same,TGI,DMS 273 small cell lung,> 100 µM
